{"source": "patent US5942529A", "about": "“Benzisothiazolyl-substituted aminomethylchromans” (Bayer Aktiengesellschaft, priority 1995, dated 1999)", "key": {"[1]": {"tested_on": "permanent focal cerebral ischaemia (MCA-O)", "assay": "Permanent focal cerebral ischaemia (middle cerebral artery occlusion, MCA-O) in rats", "type": "in vivo", "settings": "rat, continuous infusion 4 hours after occlusion, assessed 7 days after operation", "text": "Animal model: permanent focal cerebral ischaemia (\"middle cerebral artery occlusion\"=MCA-O). MCA occlusion in rodents is a widely accepted animal model of stroke. Reference: Bederson, J. B. et al., Stroke, 17:472-476 (1986).\nIn order to produce permanent focal cerebral ischaemia, the left medial cerebral artery in rats is occluded by electrocoagulation. The resulting infarct volume in cortical (subcortical) regions which are supplied by the medial cerebral artery is used as a measure of the extent of the stroke-induced neuronal damage. Administration of substance: after occlusion as a continuous i.v. infusion (4 hours) of the test substance, beginning directly after operation. The animals are sacrificed for assessment 7 days after operation."}, "5-HT1A receptors": {"molecular_target": "T1, 5-HT1A receptors (Bos taurus, UniProt F6Q2H9)", "T1 construct": "measured in calf hippocampus membranes; from tissue; host or cells: calf hippocampus membranes", "T1 sequence (F6Q2H9 1-422)": "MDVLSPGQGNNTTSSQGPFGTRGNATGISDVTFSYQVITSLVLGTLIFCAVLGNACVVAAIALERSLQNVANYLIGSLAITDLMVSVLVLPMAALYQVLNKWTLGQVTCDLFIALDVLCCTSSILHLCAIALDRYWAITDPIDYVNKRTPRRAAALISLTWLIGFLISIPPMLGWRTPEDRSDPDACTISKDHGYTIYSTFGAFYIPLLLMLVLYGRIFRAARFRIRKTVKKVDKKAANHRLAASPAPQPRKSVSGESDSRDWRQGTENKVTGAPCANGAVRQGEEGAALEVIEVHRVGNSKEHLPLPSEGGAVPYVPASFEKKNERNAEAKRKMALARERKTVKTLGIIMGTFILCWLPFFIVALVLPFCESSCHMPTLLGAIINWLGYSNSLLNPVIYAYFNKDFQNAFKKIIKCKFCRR", "assay": "Affinity for the 5-HT1A receptor (3H-ipsapirone binding, calf hippocampus membranes)", "method": "2.) Affinity for the 5-HT1A receptor [W. U. Dompert et al., Naunyn-Schmiedeberg's Arch Pharmacol. (1985), 328, 467-470].\nIn this test, the binding of ^3 H-ipsapirone to 5-HT1A receptors is measured in calf hippocampus membranes.\n(§1) In the binding tests under 1) and 2), IC50 values are determined which indicate at which concentration of test substance 50% of the binding of the radioligand is displaced. Taking into account the dissociation constants and the concentration of radioligand, the inhibition constants Ki are calculated from this."}, "5-HT1 receptor": {"molecular_target": "5-HT1 receptor", "assay": "Affinity for the 5-HT1 receptor (3H-serotonin binding, calf hippocampus membranes)", "settings": "calf hippocampus membrane preparations", "method": "as §1, with “The values indicated are data which were determined from receptor binding studies using calf hippocampus membrane preparations. The radiolabelled ligand used for this purpose was ^3 H-serotonin. In” for “In”"}}, "note": "pKi: −log10 of the molar value. Counter-ions that a name gives are not always drawn."}
{"smiles": "CC(C)Oc1cccc2c1OC(CNCCCCN1C(=O)c3ccccc3S1(=O)=O)CC2", "note": "(single isomer, unassigned) [Example 2]", "values": [{"measurement": "% Reduction of the infarct volume", "setting": "[1]; 0.001 mg/kg i.v.", "value": 36, "unit": "%"}, {"measurement": "% Reduction of the infarct volume", "setting": "[1]; 0.01 mg/kg i.v.", "value": 48, "unit": "%"}, {"measurement": "% Reduction of the infarct volume", "setting": "[1]; 0.1 mg/kg i.v.", "value": 32, "unit": "%"}, {"measurement": "pKi", "setting": "5-HT1A receptors", "value": 9.30}]}
{"smiles": "CC(C)(Cl)COc1cccc2c1OC(CNCCCCN1C(=O)c3ccccc3S1(=O)=O)CC2", "note": "(single isomer, unassigned) [Example 3]", "values": [{"measurement": "% Reduction of the infarct volume", "setting": "[1]; 0.001 mg/kg i.v.", "value": 37, "unit": "%"}, {"measurement": "% Reduction of the infarct volume", "setting": "[1]; 0.003 mg/kg i.v.", "value": 34, "unit": "%"}, {"measurement": "% Reduction of the infarct volume", "setting": "[1]; 0.01 mg/kg i.v.", "value": 47, "unit": "%"}, {"measurement": "pKi", "setting": "5-HT1A receptors", "value": 8.74}]}
{"smiles": "CC1(C)Cc2ccc3c(c2O1)OC(CNCCCCN1C(=O)c2ccccc2S1(=O)=O)CC3", "note": "(single isomer, unassigned) [Example 6]", "values": [{"measurement": "% Reduction of the infarct volume", "setting": "[1]; 0.001 mg/kg i.v.", "value": 41, "unit": "%"}, {"measurement": "% Reduction of the infarct volume", "setting": "[1]; 0.01 mg/kg i.v.", "value": 41, "unit": "%"}, {"measurement": "% Reduction of the infarct volume", "setting": "[1]; 0.1 mg/kg i.v.", "value": 38, "unit": "%"}, {"measurement": "pKi", "setting": "5-HT1A receptors", "value": 9.05}]}
{"smiles": "CC(C)(Cl)COc1cccc2c1OC(CNCCCCN1C(=O)c3ccccc3S1(=O)=O)CC2", "note": "(racemic) [Example 4]", "values": [{"measurement": "pKi", "setting": "5-HT1 receptor", "value": 8.55}]}
{"smiles": "CC(C)Oc1cccc2c1OC(CNCCCCN1C(=O)c3ccccc3S1(=O)=O)CC2", "note": "(stereo not drawn) [Example 1, 2-(N-(4-(1,1-Dioxido-3-oxo-2,3-dihydro-benzisothiazol-2-yl)butyl)amino)methyl-8-isopropoxy-chroman oxalate]", "values": [{"measurement": "pKi", "setting": "5-HT1 receptor", "value": 8.96}]}
{"smiles": "CC1(C)Cc2ccc3c(c2O1)OC(CNCCCCN1C(=O)c2ccccc2S1(=O)=O)CC3", "note": "(racemic) [Example 5]", "values": [{"measurement": "pKi", "setting": "5-HT1 receptor", "value": 9.30}]}
